Entries after “also recorded” stand apart in the source; their conditions may differ.

The conditions of data set [1]: mice, single intravenous dose of 12.5 μg/kg; cited from earlier work.
The test system of data set [2] is ZR-75-1 cells. Kind of data set: Clonogenic assay. In kind it is cell-based. The following applies: Homo sapiens, 72 h exposure to free maytansine. The protocol: (§1) The cytotoxicity of maytansinoid conjugated muDS6 antibody was examined using 2 different assay formats in various DS6 positive cell lines. Clonogenic assays were conducted where cells (1000-2500 cells/well) were plated on 6-well plates in 2 ml of conjugate diluted in culture media. […] The wells were washed with PBS and the colonies were stained with a 1% w/v crystal violet/10% v/v formaldehyde/PBS solution. Unbound stain was then washed thoroughly from the wells with distilled water, and the plates were allowed to dry. The colonies were counted using a Leica StereoZoom 4 dissecting microscope.
(§2) Plating efficiency (PE) was calculated as the number of colonies/number of cells plated. Surviving fraction was calculated as PE of treated cells/PE of non-treated cells. The IC50 concentration was determined by graphing the surviving fraction of cells vs. the molar concentration of the conjugate.

Data set [3] deals with WISH cells. Kind of data set: Clonogenic assay. In kind it is cell-based. The following applies: Homo sapiens, 72 h exposure to free maytansine. The protocol: as §1, §2
Data set [4] has as its system HPAF-II cells. Kind of data set: Clonogenic assay. The class given is cell-based. The settings on record: Homo sapiens, 72 h exposure to free maytansine. The protocol: as §1, §2
Data set [5] concerns KB cells. Kind of data set: Clonogenic assay. The class given is cell-based. The following applies: Homo sapiens, 72 h exposure to free maytansine. The protocol: as §1, §2
The subject of data set [6] is HPAC cells. Kind of data set: Clonogenic assay. In kind it is cell-based. The settings on record: Homo sapiens, 72 h exposure to free maytansine. The protocol:
as §1, §2

For data set [7], the system named is Caov-3 cells. Kind of data set: Clonogenic assay. The class given is cell-based. The following applies: Homo sapiens, 72 h exposure to free maytansine. The protocol: as §1, §2
Data set [8] relates to T-47D cells. Kind of data set: Clonogenic assay. The class given is cell-based. The settings on record: Homo sapiens, T47D, 72 h exposure to free maytansine. The protocol: as §1, §2
The test system of data set [9] is Caov-4 cells. Kind of data set: Clonogenic assay. In kind it is cell-based. The following applies: Homo sapiens, 72 h exposure to free maytansine. The protocol:
as §1, §2

In data set [10] the test system is Hs766T cells. Kind of data set: Clonogenic assay. The following applies: Homo sapiens, 72 h exposure to free maytansine. The class given is cell-based. The protocol:
as §1, §2

For data set [11], the system named is BT-20 cells. Kind of data set: Clonogenic assay. The settings on record: Homo sapiens, 72 h exposure to free maytansine. The class given is cell-based. The protocol:
as §1, §2

Data set [12] deals with BT-483 cells. Kind of data set: Clonogenic assay. In kind it is cell-based. The settings on record: Homo sapiens, 72 h exposure to free maytansine. The protocol:
as §1, §2

Data set [13] concerns TOV-21G cells. Kind of data set: Clonogenic assay. The class given is cell-based. The following applies: Homo sapiens, TOV21G, 72 h exposure to free maytansine. The protocol: as §1, §2
Data set [14] deals with OVCAR5 cells. Kind of data set: Clonogenic assay. In kind it is cell-based, human. The protocol: as §1, §2
Data set [15] deals with HeLa cells. Kind of data set: Clonogenic assay. In kind it is cell-based, human. The protocol: as §1, §2
Data set [16] concerns HeLa cells. Kind of data set: Flow cytometry binding assay. More on the design: species or system human. The settings on record: HeLa cells, versus muDS6 antibody. The protocol: (§3) Cells were maintained in a 37° C., 5% CO2 humidified incubator.
(§4) Cells ([…]) were incubated, on ice for 3-4 h, with serially diluted concentrations of the DS6 antibody prepared in FACS buffer (2% goat serum, RPMI) into 96-well plates. The cells were spun down in a table top centrifuge at 1500 rpm for 5 min at 4° C. After removing the media, the wells were then refilled with 150 μl of FACS buffer. The wash step was then repeated. FITC-labeled goat anti-mouse IgG (Jackson Immunoresearch) was diluted 1:100 to FACS buffer and incubated with the cells for 1 h on ice. The plate was covered in foil to prevent photobleaching of the signal. After two washes, the cells were fixed with 1% formaldehyde and analyzed on a flow cytometer.
A general note: Flow cytometry measures light scatter and fluorescence of single cells or particles in a stream.

Data set [17] concerns WISH cells. Kind of data set: MTT cell viability assay. The class given is cell-based, human. The protocol: In the MTT assay, cells were seeded in 96-well plates at a density of 1000-5000 cells/well. The cells were plated with serial dilutions of either naked muDS6 or muDS6-DM1 immunoconjugate in 200 μl of culture media. The samples were run in triplicate. The cells and antibody/conjugate mixtures were then incubated for 2-7 d, at which time cell viability was assessed by an MTT ([3(4,5-dimethylthiazol-2-yl)-2,5-diphenyl tetrazolium bromide)] assay. MTT (50 μg/well) was added to the culture supernatant and allowed to incubate for 3-4 h at 37° C. The media was removed and the MTT formazan was solubilized in DMSO (175 μl/well). The absorbance at 540-545 nm was measured. […] The wells with the highest concentrations of conjugate contained no viable cells as compared to naked antibody which had no effect (FIGS. 21 and 24).
(§5) The binding was conducted essentially as described for FIG. 20 except that KB cells were used rather than CaOv-3 cells.

Data set [18] relates to KB cells. Kind of data set: Flow cytometry binding assay. The arrangement: species or system human. The following applies: KB cells, versus unmodified antibody. The protocol: as §3, §4
The affinity of the purified huIgG was compared with muDS6 by flow cytometry. In the first set of experiments direct binding to a CA6-expressing cell line, KB, was measured. […] To confirm that the huDS6 versions retain the affinity of muDS6, competitive binding experiments were conducted. The advantage of this format is that the same detection system is used for both murine and human antibodies; that is biotin-muDS6/streptavidin-DTAF.
as §5

The test system of data set [19] is HPAC xenografts. Kind of data set: HPAC pancreatic cancer model with humanized DS6 conjugate. The class given is in vivo, mice. The protocol: The in vivo activity of huDS6v1.01-DM4 was tested on the HPAC pancreatic model. HPAC cells were inoculated on day 0, and immunoconjugate treatments were given on day 13. PBS control animals were euthanized once tumor volumes exceeded 1000 mm^3. The conjugate was given at a dose of either 200 μg/kg or 600 μg/kg DM4, corresponding to an antibody concentration 15 mg/kg and 45 mg/kg, respectively. Tumor volume (FIG. 30A) and body weight (FIG. 30B) of the mice were monitored during the course of the study.

The conditions of data set [20]: clinical trial patients; cited from earlier work.

Regarding `COc1c(O)c2c(c3cc(C(=O)N4CCc5c4c(O)c(OC)c4[nH]c(C(=O)N6CC7CC78C6=CC(=O)c6[nH]cc(C)c68)cc54)[nH]c13)CCN2C(N)=O` (centres unmarked) [CC-1065], the “day of mortality from delayed hepatotoxicity” value in data set [1] is 50 days.
In the case of `COc1cc2cc(c1Cl)N(C)C(=O)C[C@H](OC(=O)[C@H](C)N(C)C(C)=O)[C@]1(C)O[C@H]1[C@H](C)[C@@H]1C[C@@](O)(NC(=O)O1)[C@H](OC)/C=C/C=C(\C)C2` [Maytansine, maytansine], the IC50 in data set [2] is 0.1 nM; in data set [3], 0.09 nM; in data set [4] it was 0.6 nM; in data set [5], 0.03 nM; in [6] it was 0.055 nM; in data set [7], 0.032 nM. In addition, the IC50 is 0.12 nM in data set [8]; 0.6 nM in [9]; above 3 nM in data set [10]; 0.35 nM in data set [11]; 0.15 nM in [12]; 0.048 nM in data set [13]. Further, the IC50 in data set [14] (Homo sapiens, OVCAR-5, OVCAR5, 72 h exposure to free maytansine) was 0.32 nM; in data set [15] (Homo sapiens, HeLa, 72 h exposure to free maytansine), 0.1 nM. Besides, the “fold less maytansine sensitive” value is reported as 2-7 fold in [14] (OVCAR5 versus TOV-21G and HPAC); 2-7 fold in data set [15] (HeLa versus TOV-21G and HPAC).

B1: DS6-MM1-202 (conjugate)
VH: QAYLQQSGAELVRSGASVKMSCKASGYTFTSYNMHWVKQTPGQGLEWIGYIYPGNGATNYNQKFKGKATLTADPSSSTAYMQISSLTSEDSAVYFCARGDSVPFAYWGQGTLVTVSA
VL: QIVLTQSPAIMSASPGEKVTITCSAHSSVSFMHWFQQKPGTSPKLWIYSTSSLASGVPARFGGSGSGTSYSLTISRMEAEDAATYYCQQRSSFPLTFGAGTKLELKR
As to B1, in data set [16], the “effect of conjugation on binding activity” value is “retains binding activity”.

B2: huDS6v1.01: humanized (resurfaced) DS6 version 1.01, heavy chain with the human 28E4 T73 (antibody, V domains shown)
VH: QAQLVQSGAEVVKPGASVKMSCKASGYTFTSYNMHWVKQTPGQGLEWIGYIYPGNGATNYNQKFQGKATLTADTSSSTAYMQISSLTSEDSAVYFCARGDSVPFAYWGQGTLVTVSA
VL: EIVLTQSPATMSASPGERVTITCSAHSSVSFMHWFQQKPGTSPKLWIYSTSSLASGVPARFGGSGSGTSYSLTISSMEAEDAATYYCQQRSSFPLTFGAGTKLELKR
Regarding B2, the “cytotoxic activity of unconjugated antibody” value in data set [17] is on record as “no cytotoxic activity”.

B3: huDS6v1.01-DM4 (conjugate)
VH: QAQLVQSGAEVVKPGASVKMSCKASGYTFTSYNMHWVKQTPGQGLEWIGYIYPGNGATNYNQKFQGKATLTADTSSSTAYMQISSLTSEDSAVYFCARGDSVPFAYWGQGTLVTVSA
VL: EIVLTQSPATMSASPGERVTITCSAHSSVSFMHWFQQKPGTSPKLWIYSTSSLASGVPARFGGSGSGTSYSLTISSMEAEDAATYYCQQRSSFPLTFGAGTKLELKR
Regarding B3, in data set [18], the “effect of conjugation on affinity/avidity” value is listed as “essentially no loss of affinity; also recorded: little effect on the avidity”. Besides, the “toxicity / body weight” value in data set [19] (200 μg/kg DM4) is on record as “lack of body weight loss; also recorded: not toxic”. In data set [19] (200 μg/kg DM4, treatment on day 13), the anti-tumor activity result is listed as “all mice achieving complete tumor regression; also recorded: potent anti-tumor activity”.

B4: cantuzumab mertansine: huC242-DM1 antibody-maytansinoid conjugate tested in a clinical trial (conjugate, chains of the INN, looked up)
VH: QVQLVQSGAEVKKPGETVKISCKASDYTFTYYGMNWVKQAPGQGLKWMGWIDTTTGEPTYAQKFQGRIAFSLETSASTAYLQIKSLKSEDTATYFCARRGPYNWYFDVWGQGTTVTVSS
VL: DIVMTQSPLSVPVTPGEPVSISCRSSKSLLHSNGNTYLYWFLQRPGQSPQLLIYRMSNLVSGVPDRFSGSGSGTAFTLRISRVEAEDVGVYYCLQHLEYPFTFGPGTKLELK
modifications: DM1 maytansinoid conjugate
notes: huC242-DM1 antibody-maytansinoid conjugate tested in a clinical trial
As for B4, the “correlation of pretreatment shed CanAg levels with pharmacokinetics of antibody clearance” value in data set [20] is “no correlation”.

By IC50 is commonly meant the concentration that inhibits the measured activity by half. A low value points to greater potency.

Source of the values: US8987424B2, “CA6 antigen-specific cytotoxic conjugate and methods of using the same” (ImmunoGen, Inc., priority 2003, dated 2015).
